This passage reports IC50 results from patent publication US20230059136A1, “THE COMPOUNDS AND COMPOSITIONS FOR TREATING CONDITIONS ASSOCIATED WITH NLRP ACTIVITY” (Novartis AG, priority 2018, published 2023).

Structures are written as SMILES. pIC50: −log10 of the molar value. Some results are limits rather than exact numbers.

One assay has as its system IL-1β production in PMA-differentiated THP-1 cells. Put plainly: IL-1β production in PMA-differentiated THP-1 cells stimulated with gramicidin (hTHP-1 assay containing 2% fetal bovine serum). The assay is classed as cell-based, human. The settings on record: Homo sapiens, THP-1, Table B1; 2% fetal bovine serum; cells printed as numeric bound; read-out: hTHP-1 IC50 (Average IC50 of compounds in hTHP-1 assay). The method in brief:
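THP-1 cells were differentiated with PMA 20 ng/ml for 16-18 h, then plated at 50,000 cells/well in RPMI with 2% FBS. They were preincubated 1 h with compound (100–0.0017 μM final, 0.37% DMSO), then stimulated with gramicidin 5 μM for 2 h. Supernatant IL-1β was measured by HTRF.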
In general, pIC50 refers to −log10 of the IC50, conventionally taken in molar units. With `CC(C)c1cc2c(c(C(C)C)c1CC(=O)N=[S@@](N)(=O)c1cnc(C(C)(C)O)s1)COC2(C)C` [Example 340, (R)-N-(amino(2-(2-hydroxypropan-2-yl)thiazol-5-yl)(oxo)-λ^6-sulfaneylidene)-2-(4,6-diisopropyl-1,1-dimethyl-1,3-dihydroisobenzofuran-5-yl)acetamide], the pIC50 is less than 4.52.

Still in this assay, the particulars now being: Homo sapiens, THP-1, Table B1; 2% fetal bovine serum; class symbols; read-out: hTHP-1 IC50 (Average IC50 of compounds in hTHP-1 assay).
For `CNCc1ccc(S(N)(=O)=NC(=O)Cc2c(C(C)C)cc(C(F)F)cc2C(C)C)cc1` (stereo not shown) [Example 255, N-(amino(4-((methylamino)methyl)phenyl)(oxo)-λ^6-sulfaneylidene)-2-(4-(difluoromethyl)-2,6-diisopropylphenyl)acetamide], the pIC50 was 4.52 to 5.30.
The same measure, in the same setting: next, `CNCc1ccc(S(N)(=O)=NC(=O)Cc2c(C(C)C)cc(C(F)F)cc2C(C)C)cc1` (single isomer, unassigned) [Example 330, (R) or (S)-N-(amino(4-((methylamino)methyl)phenyl)(oxo)-λ^6-sulfaneylidene)-2-(4-(difluoromethyl)-2,6-diisopropylphenyl) acetamide]: 5.30 to 6.00; `CC(C)c1nc(C(F)(F)F)nc(C(C)C)c1CC(=O)N=S(N)(=O)c1cnc(C(C)(C)O)s1` (stereo not shown) [Example 153, N-(amino(2-(2-hydroxypropan-2-yl)thiazol-5-yl)(oxo)-λ^6-sulfaneylidene)-2-(4,6-diisopropyl-2-(trifluoromethyl)pyrimidin-5-yl)acetamide]: 5.30 to 6.00; `Cc1ccc(-c2cc(C(C)C)c(CC(=O)N=S(N)(=O)c3ncc(C(C)(C)O)s3)c(C(C)C)c2)cc1C` (stereo not shown) [Example 121, N-(amino(5-(2-hydroxypropan-2-yl)thiazol-2-yl)(oxo)-λ^6-sulfaneylidene)-2-(3,5-diisopropyl-3′,4′-dimethyl-[1,1′-biphenyl]-4-yl)acetamide]: 6.00 to 6.70.
Still for that read-out and setting: next, `CC(C)c1cc2c(c(C(C)C)c1CC(=O)N=S(N)(=O)c1cnc(C(C)(C)O)s1)COC2=O` (stereo not shown) [Example 256, N-(amino(2-(2-hydroxypropan-2-yl)thiazol-5-yl) (oxo)-λ^6-sulfaneylidene)-2-(4,6-diisopropyl-1-oxo-1,3-dihydroisobenzofuran-5-yl)acetamide]: 4.52 to 5.30; `CC(C)c1cc(C#CC2CCOCC2)cc(C(C)C)c1CC(=O)N=S(N)(=O)c1cc(C(C)(C)O)n(-c2ccccc2)n1` (single isomer, unassigned) [Example 277, (R) or (S)-N-(amino (5-(2-hydroxypropan-2-yl)-1-phenyl-1H-pyrazol-3-yl)(oxo-λ^6-sulfaneylidene)-2-(2,6-diisopropyl-4-((tetrahydro-2H-pyran-4-yl)ethynyl)phenyl)acetamide]: 6.00 to 6.70.

The same assay, now with this note: Homo sapiens, THP-1, Table B2; 2% fetal bovine serum; class symbols; read-out: hTHP-1 IC50 (Average IC50 of compounds in hTHP-1 assay).
As for `COc1cc(-c2cccc(C(C)C)c2CC(=O)N=S(N)(=O)c2cnc(C(C)(O)CO)s2)ccn1` (single isomer, unassigned) [Example 351, N-(amino(2-((S or R)-1,2-dihydroxypropan-2-yl)thiazol-5-yl)(oxo)-λ^6-sulfaneylidene)-2-(2-isopropyl-6-(2-methoxypyridin-4-yl)phenyl)acetamide], the pIC50 was 6.00 to 6.70.
Take `CC(C)c1cc(C#N)c(F)c(C(C)C)c1CC(=O)N=S(=O)(NC#N)c1cnc(C(C)(O)CO)s1` (single isomer, unassigned) [Example 359, N-(cyanamido(2-((R or S)-1,2-dihydroxypropan-2-yl)thiazol-5-yl)(oxo)-λ^6-sulfaneylidene)-2-(4-cyano-3-fluoro-2,6-diisopropylphenyl)acetamide]: the pIC50 was 5.30 to 6.00.
Same read-out and setting: with `CC(C)c1cc(C#N)cc(C(C)C)c1CC(=O)N=[S@](=O)(NC#N)c1nc(CO)c(C(C)(C)O)s1` [Example 375, (S)-N-(cyanamido(4-(hydroxymethyl)-5-(2-hydroxypropan-2-yl)thiazol-2-yl)(oxo)-λ^6-sulfaneylidene)-2-(4-cyano-2,6-diisopropylphenyl)acetamide] the figure was 4.52 to 5.30.

The same assay, now with this note: Table B1; 2% fetal bovine serum; class symbols; read-out: hTHP-1 IC50 (Average IC50 of compounds in hTHP-1 assay).
Take `CC(C)c1cc(C(F)F)cc(C(C)C)c1CC(=O)N=S(N)(=O)c1ccc(C(C)(C)O)cc1F` (single isomer, unassigned) [Example 87, (R)- or (S)-2-(4-(difluoromethyl)-2,6-diisopropylphenyl)-N-(2-fluoro-4-(2-hydroxypropan-2-yl)phenylsulfonimidoyl) acetamide]: the pIC50 was 6.70 to 7.40.
The same measure, in the same setting: next, `CC(C)c1ccc(F)c(C(C)C)c1CC(=O)N=S(N)(=O)c1cc(C(C)(C)O)cs1` (single isomer, unassigned) [Example 160, (S) or (R)-N-(amino(4-(2-hydroxypropan-2-yl)thiophen-2-yl)(oxo)-λ^6-sulfaneylidene)-2-(3-fluoro-2,6-diisopropylphenyl) acetamide]: 6.00 to 6.70; `CC(C)c1cc(C#N)cc(C2CC2)c1CC(=O)N=S(N)(=O)c1sc(C(C)(C)O)nc1CO` (single isomer, unassigned) [Example 71, (R)- or (S)-2-(4-cyano-2-cyclopropyl-6-isopropylphenyl)-N-(4-(hydroxymethyi)-2-(2-hydroxypropan-2-yl)thiazol-5-ylsulfonimidoyl)acetamide]: 4.52 to 5.30; `CC(C)c1cc(C(F)F)cc(C(C)C)c1CC(=O)N=S(N)(=O)c1sc(C(C)(C)O)cc1F` (single isomer, unassigned) [Example 81, (R)- or (S)-2-(4-(difluoromethyl)-2,6-diisopropylphenyl)-N-(3-fluoro-5-(2-hydroxypropan-2-yl)thiophen-2-ylsulfonimidoyl)acetamide]: 6.00 to 6.70.
Still for that read-out and setting: next, `CC(C)c1cc(C#N)c(F)c(C(C)C)c1CC(=O)N=S(N)(=O)c1cnc(C(C)(O)CO)s1` (single isomer, unassigned) [Example 333]: 6.70 to 7.40; `CC(C)c1ccc(F)c(C(C)C)c1CC(=O)N=S(N)(=O)c1cnc(C(C)(C)O)s1` (single isomer, unassigned) [Example 161, (R) or (S)-N-(amino(2-(2-hydroxypropan-2-yl)thiazol-5-yl)(oxo)-λ^6-sulfaneylidene)-2-(3-fluoro-2,6-diisopropylphenyl) acetamide]: 6.70 to 7.40.
For the molecule `CC(C)c1cc(F)cc(C(C)C)c1CC(=O)N=S(N)(=O)c1sc(C(C)(C)O)cc1F` (single isomer, unassigned) [Example 50, (S)- or (R)-2-(4-fluoro-2,6-diisopropylphenyl)-N-(3-fluoro-5-(2-hydroxypropan-2-yl)thiophen-2-ylsulfonimidoyl)acetamide], the pIC50 is 7.40 to 8.10.
In the case of `CC(C)c1nc(-c2cccc(C(F)(F)F)c2)c(F)c(C(C)C)c1CC(=O)N=S(N)(=O)c1cnc(C(C)(C)O)s1` (single isomer, unassigned) [Example 203, (S) or (R)-N-(amino (2-(2-hydroxypropan-2-yl)thiazol-5-yl)(oxo)-λ^6-sulfaneylidene)-2-(5-fluoro-2,4-diisopropyl-6-(3-(trifluoromethyl)phenyl)pyridin-3-yl) acetamide], the pIC50 is 4.52 to 5.30.

The assay is the same for the next values; noted with them: Table B2; 2% fetal bovine serum; class symbols; read-out: hTHP-1 IC50 (Average IC50 of compounds in hTHP-1 assay).
Take `CC(C)c1cc(C#N)cc(C(C)C)c1CC(=O)N=S(N)(=O)c1sc(C(C)(C)O)nc1CCO` (single isomer, unassigned) [Example 384, (S) or (R)-N-(amino(4-(2-hydroxyethyl)-2-(2-hydroxypropan-2-yl)thiazol-5-yl)(oxo)-λ^6-sulfaneylidene)-2-(4-cyano-2,6-diisopropylphenyl)acetamide]: the pIC50 was 4.52 to 5.30.
